# Experimental data from US20040029178A1, “Novel g protein-coupled receptor proteins and dnas thereof” (priority 2000, published 2004).
# Peptide text beside a SMILES is read from it.
# Biological target: T1, TGR26 (Rattus norvegicus, UniProt Q56UD9)
# T1 construct: expressed in transfected cells; whole cells in A1, membrane fraction in A2 and A3
# T1 sequence (Q56UD9 1-329): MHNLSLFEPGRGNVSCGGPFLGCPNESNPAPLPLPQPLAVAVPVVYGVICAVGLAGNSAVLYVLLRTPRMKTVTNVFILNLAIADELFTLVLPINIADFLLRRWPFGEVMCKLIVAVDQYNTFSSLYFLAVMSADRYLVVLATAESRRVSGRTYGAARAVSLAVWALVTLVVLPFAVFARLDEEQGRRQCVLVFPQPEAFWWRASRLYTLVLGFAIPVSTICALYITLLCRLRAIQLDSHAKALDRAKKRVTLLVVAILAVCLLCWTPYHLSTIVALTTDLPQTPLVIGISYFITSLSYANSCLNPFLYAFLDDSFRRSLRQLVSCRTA
# Test: Receptor binding using [125I-Tyr10]-hGPR8L (1-23) and membrane fraction of TGR26 expressing CHO cells
# Conditions: membrane fraction of TGR26 expressing CHO cells, [125I-Tyr10]-hGPR8L (1-23), method of Example 8
# Procedure: Using [^125I-Tyr^10]-hGPR8L (1-23) prepared by the method described in Reference Example 15 and a cell membrane fraction prepared from TGR26 expressing cells as described in Example 6, a receptor binding assay was carried out as follows.
# Cell membrane fraction prepared from TGR26 expressing cells was diluted to various concentration with assay buffer (25 mM Tris-HCl, 5 mM EDTA, 0.05% CHAPS (3-[(3-Cholamidopropyl) Dimethyl-Ammonio]-1-Propanesulfonate), 0.1% BSA, 0.5 mM PMSF, 1 μg/ml Pepstatin, 20 μg/ml Leupeptin, 4 μg/ml E-64, pH 7.4), and 200 μl each of the diluent was dispensed into polypropilene test tube (Falcon 2053). In order to determine an amount of maximum binding, 2 μl of DMSO and 2 μl of 7 nM [^125I-Tyr^10]-hGPR8L (1-23) were added to the membrane fraction solution. Further, in order to determine a non-specific binding, 2 μl of 100 μM hGPR8L (1-23)/DMSO solution and 2 μl of 7 nM [^125I-Tyr^10]-hGPR8L (1-23) were added to the membrane fraction solution. The reaction was done at 25° C. for 75 minutes, and the reaction mixture was filtered by suction filtration using Whatman glassfilter (GF-F) treated with polyethyleneimine. In addition, the filter was washed twice with 1.5 ml of washing buffer (25 mM Tris-HCl, 5 mM EDTA, 0.05% CHAPS, 0.1% BSA, pH 7.4). After filtration, a radioactivity remaining on the filter was counted using γ-counter, and an amount of specific binding was estimated by subtracting an amount of non-specific binding from an amount of maximum binding.
# Where the concentration of membrane fraction was set to 3 μg/ml, an inhibition for the specific binding of [125I-Tyr^10]-hGPR8L (1-23) to the membrane fraction of TGR26 expressing cells by hGPR8L (1-23) and hGPR8L (1-30) was investigated.
# A receptor binding activity of human- and porcine-homologue derivatives of GPR8 ligand peptide obtained in the reference examples was measured using a membrane fraction of TGR26 expressing CHO cells and [^125I-Tyr^10]-hGPR8L (1-23) by the method described in Example 8. The receptor binding activity is represented by concentration of 50% inhibition for binding (IC50 value).
row,Compound,IC50 [nM]
1,"CC(C)C[C@H](NC(=O)CNC(=O)[C@H](CC[S+](C)[O-])NC(=O)[C@H](CC(C)C)NC(=O)[C@H](CC(C)C)NC(=O)CNC(=O)[C@H](C)NC(=O)[C@H](C)NC(=O)[C@H](CCCNC(=N)N)NC(=O)CNC(=O)[C@@H](NC(=O)[C@@H](NC(=O)[C@H](Cc1c[nH]cn1)NC(=O)[C@H](Cc1ccc(O)cc1)NC(=O)[C@H](CCCNC(=N)N)NC(=O)[C@@H]1CCCN1C(=O)[C@H](CO)NC(=O)[C@H](C)NC(=O)[C@@H](NC(=O)[C@H](Cc1c[nH]cn1)NC(=O)[C@H](CCCCN)NC(=O)[C@H](Cc1ccc(O)cc1)NC(=O)[C@@H](N)Cc1c[nH]c2ccccc12)C(C)C)[C@@H](C)O)C(C)C)C(=O)O (stereo partly drawn) [[Met(O)]-hGPR8L (1-23), Trp-Tyr-Lys-His-Val-Ala -Ser-Pro-Arg-Tyr-His-Thr-Val-Gly-Arg-Ala-Ala-Gly-Leu-Leu-Met(O)-Gly-Leu]",0.29
2,"CC(C)[C@H](NC(=O)[C@H](Cc1c[nH]cn1)NC(=O)[C@H](CCCCN)NC(=O)[C@H](Cc1ccc(O)cc1)NC(=O)[C@@H](N)Cc1c[nH]c2ccccc12)C(=O)N[C@@H](C)C(=O)N[C@@H](CO)C(=O)N1CCC[C@H]1C(=O)N[C@@H](CCCNC(=N)N)C(=O)N[C@@H](Cc1ccc(O)cc1)C(=O)N[C@@H](Cc1c[nH]cn1)C(=O)N[C@H](C(=O)N[C@H](C(=O)NCC(=O)N[C@@H](CCCNC(=N)N)C(=O)N[C@@H](C)C(=O)N[C@@H](C)C(=O)NCC(=O)O)C(C)C)[C@@H](C)O [hGPR8L (1-18), Trp-Tyr-Lys-His-Val-Ala-Ser -Pro-Arg-Tyr-His-Thr-Val-Gly-Arg-Ala-Ala-Gly] (H-WYKHVASPRYHTVGRAAG-OH; N-terminus and C-terminus assumed)",760
3,"CC(C)C[C@H](NC(=O)CNC(=O)[C@H](C)NC(=O)[C@H](C)NC(=O)[C@H](CCCNC(=N)N)NC(=O)CNC(=O)[C@@H](NC(=O)[C@@H](NC(=O)[C@H](Cc1c[nH]cn1)NC(=O)[C@H](Cc1ccc(O)cc1)NC(=O)[C@H](CCCNC(=N)N)NC(=O)[C@@H]1CCCN1C(=O)[C@H](CO)NC(=O)[C@H](C)NC(=O)[C@@H](NC(=O)[C@H](Cc1c[nH]cn1)NC(=O)[C@H](CCCCN)NC(=O)[C@H](Cc1ccc(O)cc1)NC(=O)[C@@H](N)Cc1c[nH]c2ccccc12)C(C)C)[C@@H](C)O)C(C)C)C(=O)O [hGPR8L (1-19), Trp-Tyr-Lys-His-Val-Ala-Ser -Pro-Arg-Tyr-His-Thr-Val-Gly-Arg-Ala-Ala-Gly-Leu] (H-WYKHVASPRYHTVGRAAGL-OH; N-terminus and C-terminus assumed)",9.9
4,"CC(C)C[C@H](NC(=O)[C@H](CC(C)C)NC(=O)CNC(=O)[C@H](C)NC(=O)[C@H](C)NC(=O)[C@H](CCCNC(=N)N)NC(=O)CNC(=O)[C@@H](NC(=O)[C@@H](NC(=O)[C@H](Cc1c[nH]cn1)NC(=O)[C@H](Cc1ccc(O)cc1)NC(=O)[C@H](CCCNC(=N)N)NC(=O)[C@@H]1CCCN1C(=O)[C@H](CO)NC(=O)[C@H](C)NC(=O)[C@@H](NC(=O)[C@H](Cc1c[nH]cn1)NC(=O)[C@H](CCCCN)NC(=O)[C@H](Cc1ccc(O)cc1)NC(=O)[C@@H](N)Cc1c[nH]c2ccccc12)C(C)C)[C@@H](C)O)C(C)C)C(=O)O [hGPR8L (1-20), Trp-Tyr-Lys-His-Val-Ala-Ser -Pro-Arg-Tyr-His-Thr-Val-Gly-Arg-Ala-Ala-Gly-Leu-Leu] (H-WYKHVASPRYHTVGRAAGLL-OH; N-terminus and C-terminus assumed)",0.17
5,"CSCC[C@H](NC(=O)[C@H](CC(C)C)NC(=O)[C@H](CC(C)C)NC(=O)CNC(=O)[C@H](C)NC(=O)[C@H](C)NC(=O)[C@H](CCCNC(=N)N)NC(=O)CNC(=O)[C@@H](NC(=O)[C@@H](NC(=O)[C@H](Cc1c[nH]cn1)NC(=O)[C@H](Cc1ccc(O)cc1)NC(=O)[C@H](CCCNC(=N)N)NC(=O)[C@@H]1CCCN1C(=O)[C@H](CO)NC(=O)[C@H](C)NC(=O)[C@@H](NC(=O)[C@H](Cc1c[nH]cn1)NC(=O)[C@H](CCCCN)NC(=O)[C@@H](N)Cc1ccc(O)cc1)C(C)C)[C@@H](C)O)C(C)C)C(=O)NCC(=O)N[C@@H](CC(C)C)C(=O)O [hGPR8L (2-23), Tyr-Lys-His-Val-Ala-Ser-Pro -Arg-Tyr-His-Thr-Val-Gly-Arg-Ala-Ala-Gly-Leu-Leu-Met-Gly-Leu] (H-YKHVASPRYHTVGRAAGLLMGL-OH; C-terminus assumed)",240
6,"CSCC[C@H](NC(=O)[C@H](CC(C)C)NC(=O)[C@H](CC(C)C)NC(=O)CNC(=O)[C@H](C)NC(=O)[C@H](C)NC(=O)[C@H](CCCNC(=N)N)NC(=O)CNC(=O)[C@@H](NC(=O)[C@@H](NC(=O)[C@H](Cc1c[nH]cn1)NC(=O)[C@H](Cc1ccc(O)cc1)NC(=O)[C@H](CCCNC(=N)N)NC(=O)[C@@H]1CCCN1C(=O)[C@H](CO)NC(=O)[C@H](C)NC(=O)[C@@H](NC(=O)[C@@H](N)Cc1c[nH]cn1)C(C)C)[C@@H](C)O)C(C)C)C(=O)NCC(=O)N[C@@H](CC(C)C)C(=O)O [hGPR8L (4-23), His-Val-Ala-Ser-Pro-Arg-Tyr -His-Thr-Val-Gly-Arg-Ala-Ala-Gly-Leu-Leu-Met-Gly-Leu] (H-HVASPRYHTVGRAAGLLMGL-OH; C-terminus assumed)",2000
7,"CSCC[C@H](NC(=O)[C@H](CC(C)C)NC(=O)[C@H](CC(C)C)NC(=O)CNC(=O)[C@H](C)NC(=O)[C@H](C)NC(=O)[C@H](CCCNC(=N)N)NC(=O)CNC(=O)[C@@H](NC(=O)[C@@H](NC(=O)[C@H](Cc1c[nH]cn1)NC(=O)[C@H](Cc1ccc(O)cc1)NC(=O)[C@@H](N)CCCNC(=N)N)[C@@H](C)O)C(C)C)C(=O)NCC(=O)N[C@@H](CC(C)C)C(=O)O [hGPRBL (9-23), Arg-Tyr-His-Thr-Val-Gly-Arg -Ala-Ala-Gly-Leu-Leu-Met-Gly-Leu] (H-RYHTVGRAAGLLMGL-OH; C-terminus assumed)",2500
